Data published in US12084467B2, “Therapeutic compounds for HIV virus infection” (Gilead Sciences, Inc., priority 2021, dated 2024).
≈ marks a conversion by molar mass, not a printed value.

Key:
[1] = Solubility in simulated intestinal fluids (FaSSIF / FeSSIF); details: 25 °C, thermodynamic from solid
[2] = Kinetic solubility analysis (CLND: total chemiluminescent nitrogen determination); details: 1.0% DMSO, 24-hour incubation at ambient temperature, maximum theoretical concentration 100 μM; for pH 2 solubility: 0.1N HCl; for pH 7 solubility: 1×PBS buffer (pH 7.4)
[3] = fasted state simulated intestinal fluid (FaSSIF), fassif
[4] = fed state simulated intestinal fluid (FeSSIF), fessif

solubility [1, 3] [µg/mL]	solubility [1, 4] [µg/mL]	pH 2 solubility [2]	pH 7 solubility [2]	SMILES
42 (≈ 38.9 µM)	21 (≈ 19.4 µM)	1 μM	8 μM	CC(C)(C#Cc1ccc(-c2ccc(Cl)c3c(N(C(=O)C4(C(=O)O)CC4)S(C)(=O)=O)nn(CC(F)(F)F)c23)c([C@H](Cc2cc(F)cc(F)c2)NC(=O)Cn2nc(C(F)(F)F)c3c2C(F)(F)[C@@H]2C[C@H]32)n1)S(C)(=O)=O [Compound 18, 1-((4-chloro-7-(2-((S)-1-(2-((3bS,4aR)-5,5-difluoro-3-(trifluoromethyl)-3b,4,4a,5-tetrahydro-1H-cyclopropa[3,4]cyclopenta[1,2-c]pyrazol-1-yl)acetamido)-2-(3,5-difluorophenyl)ethyl)-6-(3-methyl-3-(methylsulfonyl)but-1-yn-1-yl)pyridin-3-yl)-1-(2,2,2-trifluoroethyl)-1H-indazol-3-yl)(methylsulfonyl)carbamoyl)cyclopropane-1-carboxylic acid]
75 (≈ 68.5 µM)	21 (≈ 19.2 µM)	1 μM	100 μM	CC(C)(C#Cc1ccc(-c2ccc(Cl)c3c(N(C(=O)N4CC(C(=O)O)C4)S(C)(=O)=O)nn(CC(F)(F)F)c23)c([C@H](Cc2cc(F)cc(F)c2)NC(=O)Cn2nc(C(F)(F)F)c3c2C(F)(F)[C@@H]2C[C@H]32)n1)S(C)(=O)=O [Compound 24, 1-((4-chloro-7-(2-((S)-1-(2-((3bS,4aR)-5,5-difluoro-3-(trifluoromethyl)-3b,4,4a,5-tetrahydro-1H-cyclopropa[3,4]cyclopenta[1,2-c]pyrazol-1-yl)acetamido)-2-(3,5-difluorophenyl)ethyl)-6-(3-methyl-3-(methylsulfonyl)but-1-yn-1-yl)pyridin-3-yl)-1-(2,2,2-trifluoroethyl)-1H-indazol-3-yl)(methylsulfonyl)carbamoyl)azetidine-3-carboxylic acid]
1110 (≈ 835 µM)	1420 (≈ 1070 µM)	1 μM	100 μM	CC(C)(C#Cc1ccc(-c2ccc(Cl)c3c(N(C(=O)c4ccccc4CN(CCC(=O)O)C(=O)OCOP(=O)(O)O)S(C)(=O)=O)nn(CC(F)(F)F)c23)c([C@H](Cc2cc(F)cc(F)c2)NC(=O)Cn2nc(C(F)(F)F)c3c2C(F)(F)[C@@H]2C[C@H]32)n1)S(C)(=O)=O [Compound 21, 3-((2-((4-chloro-7-(2-((S)-1-(2-((3bS,4aR)-5,5-difluoro-3-(trifluoromethyl)-3b,4,4a,5-tetrahydro-1H-cyclopropa[3,4]cyclopenta[1,2-c]pyrazol-1-yl)acetamido)-2-(3,5-difluorophenyl)ethyl)-6-(3-methyl-3-(methylsulfonyl)but-1-yn-1-yl)pyridin-3-yl)-1-(2,2,2-trifluoroethyl)-1H-indazol-3-yl)(methylsulfonyl)carbamoyl)benzyl)(((phosphonooxy)methoxy)carbonyl)amino)propanoi c acid]
478 (≈ 383 µM)	306 (≈ 245 µM)	1 μM	100 μM	CC(C)(C#Cc1ccc(-c2ccc(Cl)c3c(N(C(=O)N4CCC[C@H]4CNC(=O)OCOP(=O)(O)O)S(C)(=O)=O)nn(CC(F)(F)F)c23)c([C@H](Cc2cc(F)cc(F)c2)NC(=O)Cn2nc(C(F)(F)F)c3c2C(F)(F)[C@@H]2C[C@H]32)n1)S(C)(=O)=O [Compound 32, (phosphonooxy)methyl (((S)-1-((4-chloro-7-(2-((S)-1-(2-((3bS,4aR)-5,5-difluoro-3-(trifluoromethyl)-3b,4,4a,5-tetrahydro-1H-cyclopropa[3,4]cyclopenta[1,2-c]pyrazol-1-yl)acetamido)-2-(3,5-difluorophenyl)ethyl)-6-(3-methyl-3-(methylsulfonyl)but-1-yn-1-yl)pyridin-3-yl)-1-(2,2,2-trifluoroethyl)-1H-indazol-3-yl)(methylsulfonyl)carbamoyl)pyrrolidin-2-yl)methyl)carbamate]
861 (≈ 652 µM)	1710 (≈ 1290 µM)	1 μM	100 μM	CC(C)(C#Cc1ccc(-c2ccc(Cl)c3c(N(C(=O)N4CCC[C@H]4CN(CCC(=O)O)C(=O)OCOP(=O)(O)O)S(C)(=O)=O)nn(CC(F)(F)F)c23)c([C@H](Cc2cc(F)cc(F)c2)NC(=O)Cn2nc(C(F)(F)F)c3c2C(F)(F)[C@@H]2C[C@H]32)n1)S(C)(=O)=O [Compound 34, 3-((((S)-1-((4-chloro-7-(2-((S)-1-(2-((3bS,4aR)-5,5-difluoro-3-(trifluoromethyl)-3b,4,4a,5-tetrahydro-1H-cyclopropa[3,4]cyclopenta[1,2-c]pyrazol-1-yl)acetamido)-2-(3,5-difluorophenyl)ethyl)-6-(3-methyl-3-(methylsulfonyl)but-1-yn-1-yl)pyridin-3-yl)-1-(2,2,2-trifluoroethyl)-1H-indazol-3-yl)(methylsulfonyl)carbamoyl)pyrrolidin-2-yl)methyl)(((phosphonooxy)methoxy)carbonyl)amino)propanoic acid]
> 7400	> 5930	1 μM	100 μM	CC(C)(C#Cc1ccc(-c2ccc(Cl)c3c(N(C(=O)N4CC[C@@H]4CN(CC(=O)O)C(=O)OCOP(=O)(O)O)S(C)(=O)=O)nn(CC(F)(F)F)c23)c([C@H](Cc2cc(F)cc(F)c2)NC(=O)Cn2nc(C(F)(F)F)c3c2C(F)(F)[C@@H]2C[C@H]32)n1)S(C)(=O)=O [Compound 36, N—(((R)-1-((4-chloro-7-(2-((S)-1-(2-((3bS,4aR)-5,5-difluoro-3-(trifluoromethyl)-3b,4,4a,5-tetrahydro-1H-cyclopropa[3,4]cyclopenta[1,2-c]pyrazol-1-yl)acetamido)-2-(3,5-difluorophenyl)ethyl)-6-(3-methyl-3-(methylsulfonyl)but-1-yn-1-yl)pyridin-3-yl)-1-(2,2,2-trifluoroethyl)-1H-indazol-3-yl)(methylsulfonyl)carbamoyl)azetidin-2-yl)methyl)-N-(((phosphonooxy)methoxy)carbonyl)glycine]
618	534	1 μM	100 μM	CC(C)(C#Cc1ccc(-c2ccc(Cl)c3c(N(C(=O)c4ccccc4COP(=O)(O)O)S(C)(=O)=O)nn(CC(F)(F)F)c23)c([C@H](Cc2cc(F)cc(F)c2)NC(=O)Cn2nc(C(F)(F)F)c3c2C(F)(F)[C@@H]2C[C@H]32)n1)S(C)(=O)=O [Compound 22, 2-((4-chloro-7-(2-((S)-1-(2-((3bS,4aR)-5,5-difluoro-3-(trifluoromethyl)-3b,4,4a,5-tetrahydro-1H-cyclopropa[3,4]cyclopenta[1,2-c]pyrazol-1-yl)acetamido)-2-(3,5-difluorophenyl)ethyl)-6-(3-methyl-3-(methylsulfonyl)but-1-yn-1-yl)pyridin-3-yl)-1-(2,2,2-trifluoroethyl)-1H-indazol-3-yl)(methylsulfonyl)carbamoyl)benzyl dihydrogen phosphate]
253 (≈ 217 µM)	38 (≈ 32.6 µM)	1/1 μM	1/1 μM	CC(C)(C#Cc1ccc(-c2ccc(Cl)c3c(N(C(=O)[C@@H]4C[C@H](C(=O)O)C[C@H](C(=O)O)C4)S(C)(=O)=O)nn(CC(F)(F)F)c23)c([C@H](Cc2cc(F)cc(F)c2)NC(=O)Cn2nc(C(F)(F)F)c3c2C(F)(F)[C@@H]2C[C@H]32)n1)S(C)(=O)=O [Compound 15, (1R,3S,5r)-5-((4-chloro-7-(2-((S)-1-(2-((3bS,4aR)-5,5-difluoro-3-(trifluoromethyl)-3b,4,4a,5-tetrahydro-1H-cyclopropa[3,4]cyclopenta[1,2-c]pyrazol-1-yl)acetamido)-2-(3,5-difluorophenyl)ethyl)-6-(3-methyl-3-(methylsulfonyl)but-1-yn-1-yl)pyridin-3-yl)-1-(2,2,2-trifluoroethyl)-1H-indazol-3-yl)(methylsulfonyl)carbamoyl)cyclohexane-1,3-dicarboxylic acid]
377 (≈ 305 µM)	139 (≈ 113 µM)	2 μM	17 μM	CC(C)(C#Cc1ccc(-c2ccc(Cl)c3c(N(C(=O)N4CCOC[C@H]4C(=O)OCOP(=O)(O)O)S(C)(=O)=O)nn(CC(F)(F)F)c23)c([C@H](Cc2cc(F)cc(F)c2)NC(=O)Cn2nc(C(F)(F)F)c3c2C(F)(F)[C@@H]2C[C@H]32)n1)S(C)(=O)=O [Compound 23, (phosphonooxy)methyl (S)-4-((4-chloro-7-(2-((S)-1-(2-((3bS,4aR)-5,5-difluoro-3-(trifluoromethyl)-3b,4,4a,5-tetrahydro-1H-cyclopropa[3,4]cyclopenta[1,2-c]pyrazol-1-yl)acetamido)-2-(3,5-difluorophenyl)ethyl)-6-(3-methyl-3-(methylsulfonyl)but-1-yn-1-yl)pyridin-3-yl)-1-(2,2,2-trifluoroethyl)-1H-indazol-3-yl)(methylsulfonyl)carbamoyl)morpholine-3-carboxylate]
6200 (≈ 4690 µM)	> 8370	2 μM	100 μM	CC(C)(C#Cc1ccc(-c2ccc(Cl)c3c(N(C(=O)N4CCOC[C@@H]4CN(CC(=O)O)C(=O)OCOP(=O)(O)O)S(C)(=O)=O)nn(CC(F)(F)F)c23)c([C@H](Cc2cc(F)cc(F)c2)NC(=O)Cn2nc(C(F)(F)F)c3c2C(F)(F)[C@@H]2C[C@H]32)n1)S(C)(=O)=O [Compound 37, N—(((S)-4-((4-chloro-7-(2-((S)-1-(2-((3bS,4aR)-5,5-difluoro-3-(trifluoromethyl)-3b,4,4a,5-tetrahydro-1H-cyclopropa[3,4]cyclopenta[1,2-c]pyrazol-1-yl)acetamido)-2-(3,5-difluorophenyl)ethyl)-6-(3-methyl-3-(methylsulfonyl)but-1-yn-1-yl)pyridin-3-yl)-1-(2,2,2-trifluoroethyl)-1H-indazol-3-yl)(methylsulfonyl)carbamoyl)morpholin-3-yl)methyl)-N-(((phosphonooxy)methoxy)carbonyl)glycine]
